US5486516A, “Furopyrimidine derivatives” (DowElanco, priority 1993, dated 1996)

Tested on: Southern corn rootworm (Diabrotica undecimpuctata howardi Barber)
Test: Mite/insect screen, corn rootworm
Format: in vivo
Conditions: Diabrotica; CRW rate 12.00 ppm, soil; read-out: CRW results (percent mortality)
Description: (§1) The compounds of Examples were tested for miticidal and insecticidal activity in the following mite/insect screen.
(§2) Each test compound was formulated by dissolving the compound in acetone/alcohol (50:50) mixture containing 23 g of "TOXIMUL R" (sulfonate/nonionic emulsifier blend) and 13 g of "TOXIMUL S" (sulfonate/nonionic emulsifier blend) per liter. These mixtures were then diluted with water to give the indicated concentrations.
Activity on Southern corn rootworm (Diabrotica undecimpuctata howardi Barber) was evaluated by adding two ml of tap water, a presoaked corn seed, and 15 g of dry sandy soil to a one ounce plastic container. The soil was treated with 1 mL of test solution containing a predetermined concentration of test compound. After six to 12 hours of drying, five 2-3 instar corn rootworm larvae were added to the individual cups, which were then capped and held at 23° C.
(§3) After standard exposure periods, percent mortality and phytotoxicity were evaluated. […] The following abbreviations are used in Table 3:
CRW refers to corn rootworm

Structure (SMILES)	mortality at 12 ppm [%]
Cc1oc2ncnc(OCCc3ccc(Oc4ccc(C(F)(F)F)cc4)cc3)c2c1C [Example 41, 5,6-dimethyl-4-[2-[4-[4-(trifluoromethyl)phenoxy]phenyl]ethoxy]furo[2,3-d]pyrimidine]	0
Cc1cc2c(OCCc3ccc(-c4ccccc4)cc3)ncnc2o1 [Example 7, 4-[2-(1,1'-biphenyl)-4-ylethoxy]6-methylfuro[2,3-d]pyrimidine]	0
Cc1cc2c(OCCc3ccc(OC(C)(C)C)cc3)ncnc2o1 [Example 43, 6-methyl-4-[2-[4-(t-butoxy)phenyl]ethoxy]furo[2,3-d]pyrimidine]	0

Same assay, conditions: Diabrotica; CRW rate 24.00 ppm, soil; read-out: CRW results (percent mortality)

Structure (SMILES)	mortality at 24 ppm [%]
Cc1oc2ncnc(OCCc3ccc(Oc4ccc(C(F)(F)F)cc4)cc3)c2c1C [Example 41, 5,6-dimethyl-4-[2-[4-[4-(trifluoromethyl)phenoxy]phenyl]ethoxy]furo[2,3-d]pyrimidine]	60
Cc1cc2c(OCCc3ccc(-c4ccccc4)cc3)ncnc2o1 [Example 7, 4-[2-(1,1'-biphenyl)-4-ylethoxy]6-methylfuro[2,3-d]pyrimidine]	0
Cc1cc2c(OCCc3ccc(OC(C)(C)C)cc3)ncnc2o1 [Example 43, 6-methyl-4-[2-[4-(t-butoxy)phenyl]ethoxy]furo[2,3-d]pyrimidine]	0

Tested on: Erysiphe graminis tritici (powdery mildew)
Test: Plant pathology screen (Test 1), powdery mildew on wheat
Conditions: Blumeria graminis, in Triticum aestivum, foliar, read-out: POWD MDEW control rating
Description: (§5) The test compounds were formulated for application by dissolving 50 mg of the compound into 1.25 ml of solvent. The solvent was prepared by mixing 50 ml of "Tween 20" (polyoxyethylene (20) sorbitan monolaurate emulsifier) with 475 ml of acetone and 475 ml of ethanol. The solvent/compound solution was diluted to 125 ml with deionized water. The resulting formulation contains 400 ppm test chemical. Lower concentrations were obtained by serial dilution with the solvent-surfactant mixture.
(§6) The formulated test compounds were applied by foliar spray.
(§7) The formulated technical compounds were sprayed on all foliar surfaces of the host plants (or cut berry) to past run-off. Single pots of each host plant were placed on raised, revolving pedestals in a fume hood. Test solutions were sprayed on all foliar surfaces. All treatments were allowed to dry and the plants were inoculated with the appropriate pathogens within 2-4 hours.
(§8) The effectiveness of test compounds in controlling disease was rated using the following scale.

Structure (SMILES)	pest or weed control at 400 µg/mL [%]
Cc1oc2ncnc(OCCc3ccc(Oc4ccc(C(F)(F)F)cc4)cc3)c2c1C [Example 41, 5,6-dimethyl-4-[2-[4-[4-(trifluoromethyl)phenoxy]phenyl]ethoxy]furo[2,3-d]pyrimidine]	90 to 100
Cc1cc2c(OCCc3ccc(-c4ccccc4)cc3)ncnc2o1 [Example 7, 4-[2-(1,1'-biphenyl)-4-ylethoxy]6-methylfuro[2,3-d]pyrimidine]	0 to 19
Cc1cc2c(OCCc3ccc(OC(C)(C)C)cc3)ncnc2o1 [Example 43, 6-methyl-4-[2-[4-(t-butoxy)phenyl]ethoxy]furo[2,3-d]pyrimidine]	90 to 100

Tested on: Pyricularia oryzae (rice blast)
Test: whole plant or invertebrate
Format: in vivo
Conditions: foliar, read-out: RICE BLAST control rating

Structure (SMILES)	pest or weed control at 400 µg/mL [%]
Cc1oc2ncnc(OCCc3ccc(Oc4ccc(C(F)(F)F)cc4)cc3)c2c1C [Example 41, 5,6-dimethyl-4-[2-[4-[4-(trifluoromethyl)phenoxy]phenyl]ethoxy]furo[2,3-d]pyrimidine]	20 to 89
Cc1cc2c(OCCc3ccc(-c4ccccc4)cc3)ncnc2o1 [Example 7, 4-[2-(1,1'-biphenyl)-4-ylethoxy]6-methylfuro[2,3-d]pyrimidine]	20 to 89
Cc1cc2c(OCCc3ccc(OC(C)(C)C)cc3)ncnc2o1 [Example 43, 6-methyl-4-[2-[4-(t-butoxy)phenyl]ethoxy]furo[2,3-d]pyrimidine]	20 to 89

Tested on: Puccinia recondita tritici (leaf rust)
Test: Plant pathology screen (Test 1), leaf rust on wheat
Conditions: in Triticum aestivum, foliar, read-out: LEAF RUST control rating
Description: This screen was used to evaluate the efficacy of the present compounds against a variety of different organisms that cause plant diseases.
as §5, §6, §7, §8

Structure (SMILES)	pest or weed control at 400 µg/mL [%]
Cc1oc2ncnc(OCCc3ccc(Oc4ccc(C(F)(F)F)cc4)cc3)c2c1C [Example 41, 5,6-dimethyl-4-[2-[4-[4-(trifluoromethyl)phenoxy]phenyl]ethoxy]furo[2,3-d]pyrimidine]	90 to 100
Cc1cc2c(OCCc3ccc(-c4ccccc4)cc3)ncnc2o1 [Example 7, 4-[2-(1,1'-biphenyl)-4-ylethoxy]6-methylfuro[2,3-d]pyrimidine]	0 to 19
Cc1cc2c(OCCc3ccc(OC(C)(C)C)cc3)ncnc2o1 [Example 43, 6-methyl-4-[2-[4-(t-butoxy)phenyl]ethoxy]furo[2,3-d]pyrimidine]	90 to 100

Tested on: Botrytis cinerea (gray mold)
Test: Plant pathology screen (Test 1), gray mold on grape berries
Conditions: read-out: GRAY MOLD control rating

Structure (SMILES)	pest or weed control at 400 µg/mL [%]
Cc1oc2ncnc(OCCc3ccc(Oc4ccc(C(F)(F)F)cc4)cc3)c2c1C [Example 41, 5,6-dimethyl-4-[2-[4-[4-(trifluoromethyl)phenoxy]phenyl]ethoxy]furo[2,3-d]pyrimidine]	0 to 19
Cc1cc2c(OCCc3ccc(-c4ccccc4)cc3)ncnc2o1 [Example 7, 4-[2-(1,1'-biphenyl)-4-ylethoxy]6-methylfuro[2,3-d]pyrimidine]	0 to 19
Cc1cc2c(OCCc3ccc(OC(C)(C)C)cc3)ncnc2o1 [Example 43, 6-methyl-4-[2-[4-(t-butoxy)phenyl]ethoxy]furo[2,3-d]pyrimidine]	0 to 19

Tested on: melon aphids (Aphis gossvpii Glover)
Test: Mite/insect screen, melon aphids
Format: in vivo
Conditions: Aphis; rate 200 ppm, sprayed leaves; read-out: MA results (percent mortality)
Description: as §1, §2
(§4) Twospotted spider mites (Tetranychus urticae Koch) and melon aphids (Aphis gossvpii Glover) were introduced on squash cotyledons and allowed to establish on both leaf surfaces. Other plants in the same treatment pot were left uninfested. The leaves were then sprayed with 5 ml of test solution using a DeVilbiss atomizing sprayer at 10 psi. Both surfaces of the leaves were covered until runoff, and then allowed to dry for one hour. Two uninfested leaves were then excised and placed into a Petri dish containing larval southern armyworm (Spodopetra eridania Cramer).
as §3
MA refers to melon aphids.

Structure (SMILES)	mortality at 200 ppm [%]
Cc1oc2ncnc(OCCc3ccc(Oc4ccc(C(F)(F)F)cc4)cc3)c2c1C [Example 41, 5,6-dimethyl-4-[2-[4-[4-(trifluoromethyl)phenoxy]phenyl]ethoxy]furo[2,3-d]pyrimidine]	0
Cc1cc2c(OCCc3ccc(-c4ccccc4)cc3)ncnc2o1 [Example 7, 4-[2-(1,1'-biphenyl)-4-ylethoxy]6-methylfuro[2,3-d]pyrimidine]	100
Cc1cc2c(OCCc3ccc(OC(C)(C)C)cc3)ncnc2o1 [Example 43, 6-methyl-4-[2-[4-(t-butoxy)phenyl]ethoxy]furo[2,3-d]pyrimidine]	90

Same assay, conditions: Aphis; rate 400 ppm, sprayed leaves; read-out: MA results (percent mortality)

Structure (SMILES)	mortality at 400 ppm [%]
Cc1oc2ncnc(OCCc3ccc(Oc4ccc(C(F)(F)F)cc4)cc3)c2c1C [Example 41, 5,6-dimethyl-4-[2-[4-[4-(trifluoromethyl)phenoxy]phenyl]ethoxy]furo[2,3-d]pyrimidine]	100
Cc1cc2c(OCCc3ccc(-c4ccccc4)cc3)ncnc2o1 [Example 7, 4-[2-(1,1'-biphenyl)-4-ylethoxy]6-methylfuro[2,3-d]pyrimidine]	0
Cc1cc2c(OCCc3ccc(OC(C)(C)C)cc3)ncnc2o1 [Example 43, 6-methyl-4-[2-[4-(t-butoxy)phenyl]ethoxy]furo[2,3-d]pyrimidine]	80

Tested on: Pseudoperonospora cubensis (downy mildew)
Test: Plant pathology screen (Test 1), downy mildew on squash
Conditions: foliar, read-out: DOWN MDEW control rating

Structure (SMILES)	pest or weed control at 400 µg/mL [%]
Cc1oc2ncnc(OCCc3ccc(Oc4ccc(C(F)(F)F)cc4)cc3)c2c1C [Example 41, 5,6-dimethyl-4-[2-[4-[4-(trifluoromethyl)phenoxy]phenyl]ethoxy]furo[2,3-d]pyrimidine]	90 to 100
Cc1cc2c(OCCc3ccc(-c4ccccc4)cc3)ncnc2o1 [Example 7, 4-[2-(1,1'-biphenyl)-4-ylethoxy]6-methylfuro[2,3-d]pyrimidine]	20 to 89
Cc1cc2c(OCCc3ccc(OC(C)(C)C)cc3)ncnc2o1 [Example 43, 6-methyl-4-[2-[4-(t-butoxy)phenyl]ethoxy]furo[2,3-d]pyrimidine]	90 to 100

Tested on: Twospotted spider mites (Tetranychus urticae Koch)
Test: Mite/insect screen, twospotted spider mites
Format: in vivo
Conditions: Tetranychus urticae, rate 200 ppm, sprayed leaves; read-out: SM results (percent mortality)
Description: as §1, §2, §4, §3
SM refers to twospotted spider mites

Structure (SMILES)	mortality at 200 ppm [%]
Cc1oc2ncnc(OCCc3ccc(Oc4ccc(C(F)(F)F)cc4)cc3)c2c1C [Example 41, 5,6-dimethyl-4-[2-[4-[4-(trifluoromethyl)phenoxy]phenyl]ethoxy]furo[2,3-d]pyrimidine]	0
Cc1cc2c(OCCc3ccc(-c4ccccc4)cc3)ncnc2o1 [Example 7, 4-[2-(1,1'-biphenyl)-4-ylethoxy]6-methylfuro[2,3-d]pyrimidine]	30
Cc1cc2c(OCCc3ccc(OC(C)(C)C)cc3)ncnc2o1 [Example 43, 6-methyl-4-[2-[4-(t-butoxy)phenyl]ethoxy]furo[2,3-d]pyrimidine]	90

Same assay, conditions: Tetranychus urticae, rate 400 ppm, sprayed leaves; read-out: SM results (percent mortality)

Structure (SMILES)	mortality at 400 ppm [%]
Cc1oc2ncnc(OCCc3ccc(Oc4ccc(C(F)(F)F)cc4)cc3)c2c1C [Example 41, 5,6-dimethyl-4-[2-[4-[4-(trifluoromethyl)phenoxy]phenyl]ethoxy]furo[2,3-d]pyrimidine]	100
Cc1cc2c(OCCc3ccc(-c4ccccc4)cc3)ncnc2o1 [Example 7, 4-[2-(1,1'-biphenyl)-4-ylethoxy]6-methylfuro[2,3-d]pyrimidine]	0
Cc1cc2c(OCCc3ccc(OC(C)(C)C)cc3)ncnc2o1 [Example 43, 6-methyl-4-[2-[4-(t-butoxy)phenyl]ethoxy]furo[2,3-d]pyrimidine]	80

Tested on: southern armyworm (Spodopetra eridania Cramer)
Test: Mite/insect screen, Southern armyworm
Format: in vivo
Conditions: Spodoptera eridania; rate 200 ppm, sprayed leaves; read-out: SAW results (percent mortality)
Description: as §1, §2, §4, §3
SAW refers to Southern armyworm

Structure (SMILES)	mortality at 200 ppm [%]
Cc1oc2ncnc(OCCc3ccc(Oc4ccc(C(F)(F)F)cc4)cc3)c2c1C [Example 41, 5,6-dimethyl-4-[2-[4-[4-(trifluoromethyl)phenoxy]phenyl]ethoxy]furo[2,3-d]pyrimidine]	0
Cc1cc2c(OCCc3ccc(-c4ccccc4)cc3)ncnc2o1 [Example 7, 4-[2-(1,1'-biphenyl)-4-ylethoxy]6-methylfuro[2,3-d]pyrimidine]	0
Cc1cc2c(OCCc3ccc(OC(C)(C)C)cc3)ncnc2o1 [Example 43, 6-methyl-4-[2-[4-(t-butoxy)phenyl]ethoxy]furo[2,3-d]pyrimidine]	0

Same assay, conditions: Spodoptera eridania; rate 400 ppm, sprayed leaves; read-out: SAW results (percent mortality)

Structure (SMILES)	mortality at 400 ppm [%]
Cc1oc2ncnc(OCCc3ccc(Oc4ccc(C(F)(F)F)cc4)cc3)c2c1C [Example 41, 5,6-dimethyl-4-[2-[4-[4-(trifluoromethyl)phenoxy]phenyl]ethoxy]furo[2,3-d]pyrimidine]	0
Cc1cc2c(OCCc3ccc(-c4ccccc4)cc3)ncnc2o1 [Example 7, 4-[2-(1,1'-biphenyl)-4-ylethoxy]6-methylfuro[2,3-d]pyrimidine]	0
Cc1cc2c(OCCc3ccc(OC(C)(C)C)cc3)ncnc2o1 [Example 43, 6-methyl-4-[2-[4-(t-butoxy)phenyl]ethoxy]furo[2,3-d]pyrimidine]	0
